This is an account of results in patent US8163909B2, “Substituted hydroxyethyl amine compounds as beta-secretase modulators and methods of use” (Amgen Inc., priority 2007, dated 2012).

Data set [1] in a line: Microsomal stability assay, human liver microsomes.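 Note: pooled human liver microsomes at 0.25 mg/mL with 1 µM compound and NADPH at 37 °C, pH 7.4, for 30 min, unchanged parent quantified by LC-MS/MS against the 0 min sample.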
In data set [2] the target is Beta Secretase enzyme (BACE) (Homo sapiens, UniProt P56817). The data set is described as follows: In vitro enzymatic BACE FRET (fluorescence resonance energy transfer) assay.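 Note: fluorescence read after 1 h with 50 nM quenched peptide substrate spanning the BACE cleavage site, in pH 4.2 acetate buffer containing 10% DMSO and nonionic detergent.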 Format: biochemical.
Data set [3] is described as follows: Microsomal stability assay, rat liver microsomes.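 Note: rat liver microsomes (0.25 mg/mL) with about 1 µM compound plus 1 mM NADPH, pH 7.4, 37 °C for 30 min, parent left measured by LC-MS/MS against 0 min.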
Data set [4] relates to Aβ40 in conditioned medium of cells stably expressing Amyloid Precursor Protein (APP). Put plainly: In vitro BACE cell-based assay (Aβ40 in conditioned medium, sandwich ELISA).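 Note: compounds added as a dilution series, secreted peptide quantified by europium time-resolved fluorescence readout, potency fitted from percent of control versus compound concentration.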
Another data set has as its target CYP2D6 (Homo sapiens, UniProt P10635). Put plainly: CYP2D6 inhibition assay (bufuralol, pooled human liver microsomes). The note with it: 2D6 IC50, CYP enzyme inhibition.
[5] abbreviates: BACE enzyme assay, IC50's in uM, read-out: BACE1 FRET assay.
Where [6] appears, read: Homo sapiens, HEK293, cell-based assay, HEK cells, IC50's in uM, read-out: HEK cell assay.
The mark [7] stands for this setting: BACE enzyme assay, read-out: BACE1 FRET assay.
The mark [8] stands for this setting: Homo sapiens, HEK293, HEK cells, read-out: HEK cell assay.
The mark [9] stands for this setting: BACE enzyme assay, read-out: BACE1 FRET assay (IC50).
The mark [10] stands for this setting: Homo sapiens, HEK293, HEK cells, cell-based assay, read-out: HEK cell assay (IC50).
The mark [11] stands for this setting: Table 1, read-out: BACE1 FRET assay.
Setting [12] is: Homo sapiens, HEK293, Table 1, HEK cells, read-out: HEK cell assay.
The mark [13] stands for this setting: BACE enzyme FRET assay, read-out: BACE1 FRET assay (IC50).

Where two headings read alike, the source gives them in different places.

Beta Secretase enzyme (BACE), sequence (P56817 46-501): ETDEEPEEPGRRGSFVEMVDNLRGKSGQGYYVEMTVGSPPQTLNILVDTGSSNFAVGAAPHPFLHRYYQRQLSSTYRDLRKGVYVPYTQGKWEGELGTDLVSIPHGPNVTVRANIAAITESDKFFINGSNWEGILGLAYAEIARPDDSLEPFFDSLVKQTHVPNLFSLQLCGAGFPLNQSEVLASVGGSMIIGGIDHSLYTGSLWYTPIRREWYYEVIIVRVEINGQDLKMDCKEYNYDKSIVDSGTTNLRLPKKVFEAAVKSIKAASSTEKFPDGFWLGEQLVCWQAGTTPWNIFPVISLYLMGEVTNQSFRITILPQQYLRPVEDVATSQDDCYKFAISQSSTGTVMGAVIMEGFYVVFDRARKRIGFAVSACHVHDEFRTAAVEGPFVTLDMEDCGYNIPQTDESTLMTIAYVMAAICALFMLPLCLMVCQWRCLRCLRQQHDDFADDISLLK
CYP2D6, sequence (P10635 whole entry): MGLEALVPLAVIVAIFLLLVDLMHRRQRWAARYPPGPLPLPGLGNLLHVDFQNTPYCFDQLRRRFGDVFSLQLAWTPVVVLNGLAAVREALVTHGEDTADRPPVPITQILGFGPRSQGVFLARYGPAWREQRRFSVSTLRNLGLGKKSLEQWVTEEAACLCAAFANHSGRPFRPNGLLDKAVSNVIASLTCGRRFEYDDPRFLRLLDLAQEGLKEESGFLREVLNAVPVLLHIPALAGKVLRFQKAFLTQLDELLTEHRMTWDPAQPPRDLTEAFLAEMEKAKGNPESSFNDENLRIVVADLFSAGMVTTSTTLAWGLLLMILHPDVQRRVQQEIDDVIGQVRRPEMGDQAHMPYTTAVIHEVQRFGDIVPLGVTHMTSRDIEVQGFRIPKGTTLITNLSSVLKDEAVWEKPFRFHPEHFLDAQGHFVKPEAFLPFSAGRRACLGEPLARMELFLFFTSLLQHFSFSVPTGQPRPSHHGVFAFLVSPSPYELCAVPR

In data set [1] (human liver microsomal data), `CO[C@@H](C)C(=O)N[C@@H](Cc1ccc2c(c1)OCO2)[C@H](O)CN[C@H]1CC2(CCC2)Oc2c1cc(CC(C)(C)C)nc2N(C)C` [compound 443] had an HLM of 190 µL/min/mg. For the same compound, the IC50 in data set [2] (Table 2, read-out: BACE1 FRET assay) came out at 0.065 µM; in data set [4] (Homo sapiens, HEK293, Table 2, HEK cells, read-out: HEK cell assay), 0.175 µM. Moreover, the RLM in data set [3] (rat liver microsomal data) amounted to 232 µL/min/mg.

On to `C#Cc1cccc(C[C@H](NC(=O)[C@@H]2CCCO2)[C@H](O)CN[C@H]2CC3(CCC3)Oc3ncc(CC(C)(C)C)cc32)c1` [compound 897], for which the IC50 at CYP2D6 amounted to 3600 nM; in data set [2] (setting [5]) it was 0.005 µM; in data set [4] (setting [6]), 0.007 µM. Further, in data set [3] (rat liver microsomal data), the RLM came out at 55 µL/min/mg.

With `CCO[C@H](C)C(=O)N[C@@H](Cc1ccc2c(c1)OCO2)[C@H](O)CN[C@H]1CC2(CCC2)Oc2ncc(CC(C)(C)C)cc21` [compound 887], the HLM in data set [1] (human liver microsomal data) stood at 37 µL/min/mg. The results for the IC50 in data set [2] (setting [5]) and in data set [4] (setting [6]) were 0.102 µM and 0.052 µM, respectively. Further, in data set [3] (rat liver microsomal data), the RLM turned out to be 136 µL/min/mg.

Take `COCC(=O)N[C@@H](Cc1cccc(F)c1)[C@H](O)CN[C@H]1CC2(CCC2)Oc2c1cc(Cl)cc2-n1ccnc1` [compound 553]: the “HLM” value in data set [1] (human liver microsomal data) came out at 47 µL/min/mg. Moreover, the IC50 in data set [2] (setting [7]) came out at 0.146 µM. In addition, the “RLM” value in data set [3] (rat liver microsomal data) was determined as 86 µL/min/mg.

The compound `COCC(=O)N[C@@H](Cc1cc(F)cc(F)c1)[C@H](O)CN[C@H]1CC2(CCC2)Oc2c1cc(Cl)cc2-n1ccnc1` [compound 581] showed an HLM in data set [1] (human liver microsomes) of 91 µL/min/mg. Besides, the IC50 in data set [2] (read-out: BACE1 FRET assay (IC50)) stood at 0.081 µM; in data set [4] (Homo sapiens, HEK293, HEK cells, read-out: HEK cell assay (IC50)), 0.075 µM. In data set [3] (rat liver microsomes), this compound returned an RLM of 124 µL/min/mg.

`COCC(=O)N[C@@H](Cc1ccc2c(c1)OCO2)[C@H](O)CN[C@H]1CC2(CCC2)Oc2ccc(C[C@@H](C)F)cc21` [compound 558]: in data set [1] (human liver microsomal data), the “HLM” value is 167 µL/min/mg. For the same compound, the IC50 in data set [2] (setting [7]) turned out to be 0.25 µM; in data set [4] (setting [8]), 0.336 µM. Besides, in data set [3] (rat liver microsomal data), the “RLM” value was 362 µL/min/mg.

Take `CC(=O)N[C@@H](Cc1cccc(F)c1C)[C@H](O)CN[C@H]1CC2(CCC2)Oc2ncc(CC(C)(C)C)cc21` [compound 109]: the IC50 was found to be 0.0723 µM in data set [2] (setting [9]) and 0.319 µM in data set [4] (setting [10]).

As for `CC(=O)N[C@@H](Cc1ccc2c(c1)OCO2)[C@H](O)CN[C@H]1CC2(CCC2)Oc2ncc(C[C@H](C)C(F)(F)F)cc21` [compound 320], the IC50 in data set [2] (setting [11]) was found to be 0.155 µM; in data set [4] (setting [12]) it was 0.12 µM.

Turning to `CC(=O)Nc1cnc2c(c1)[C@@H](NC[C@@H](O)[C@H](Cc1ccc(F)cc1)NC(C)=O)CC1(CCC1)O2` [compound 83, N-((1S,2R)-3-(((4′S)-6′-(acetylamino)-3′,4′-dihydrospiro[cyclobutane-1,2′-pyrano[2,3-b]pyridin]-4′-yl)amino)-1-((4-fluorophenyl)methyl)-2-hydroxypropyl)acetamide], the figures for the IC50 in data set [2] (setting [9]) and in data set [4] (setting [10]) were 0.593 µM and more than 10 µM, respectively.

`CNc1nc(CC(C)(C)C)cc2c1OC1(CCC1)C[C@@H]2NC[C@@H](O)[C@H](Cc1ccc(F)cc1)NC(=O)[C@@H](C)OC` [compound 137]: the values for the IC50 in data set [2] (setting [9]) and in data set [4] (setting [10]) were 0.082 µM and 0.0575 µM, respectively.

For `CC(C)(C)Cc1cnc2c(c1)[C@@H](NC[C@@H](O)[C@H](Cc1ccc3c(c1)OCO3)NC(=O)C(F)(F)F)CC1(CCC1)O2` [compound 288], the results for the IC50 in data set [2] (setting [13]) and in data set [4] (setting [10]) were 0.0539 µM and 0.455 µM, respectively.

As for `COCC(=O)N[C@@H](Cc1ccc2c(c1)OCO2)[C@H](O)CN[C@H]1CC2(CCC2)Oc2c1cc(CC(C)(C)C)nc2NCC(F)(F)F` [compound 142], the IC50 is 0.35 µM in data set [2] (setting [9]) and 1.95 µM in data set [4] (setting [10]).

Regarding `COCC(=O)N[C@@H](Cc1ccc(F)c(Cl)c1)[C@H](O)CN[C@H]1CC2(CCC2)Oc2ncc(CC(C)(C)C)cc21` [compound 351], the figures for the IC50 in data set [2] (setting [11]) and in data set [4] (setting [12]) were 0.00275 µM and 0.0123 µM, respectively.

As to `COCC(=O)N[C@@H](Cc1cc(F)cc(F)c1)[C@H](O)CN[C@H]1CC2(CCC2)Oc2ncc(CC(F)(F)F)cc21` [compound 348], the IC50 amounted to 0.00688 µM in data set [2] (setting [11]) and 0.0182 µM in data set [4] (setting [12]).

As for `CC(=O)N[C@@H](Cc1ccc(F)cc1)[C@H](O)CN[C@H]1CC2(CCC2)Oc2ccc(CC(C)(C)F)cc21` [compound 200], the IC50 in data set [2] (setting [13]) amounted to 0.206 µM; in data set [4] (setting [10]) it was 0.375 µM.

As for `CO[C@H](C)C(=O)N[C@@H](Cc1ccc(F)cc1)[C@H](O)CN[C@H]1CC2(CCC2)Oc2c1cc(CC(C)(C)C)nc2NCC(F)(F)F` [compound 141, (2R)-N-((1S,2R)-3-(((4′S)-6′-(2,2-dimethylpropyl)-8′-((2,2,2-trifluoroethyl)amino)-3′,4′-dihydrospiro[cyclobutane-1,2′-pyrano[2,3-c]pyridin]-4′-yl)amino)-1-((4-fluorophenyl)methyl)-2-hydroxypropyl)-2-(methyloxy)propanamide], the IC50 worked out at 0.319 µM in data set [2] (setting [9]) and 2.84 µM in data set [4] (setting [10]).

For `CC(=O)N[C@@H](Cc1ccc(F)c(Cl)c1)[C@H](O)CN[C@H]1CC2(CCC2)Oc2ncc(CC(C)(C)C(F)F)cc21` [compound 215], the figures for the IC50 in data set [2] (setting [13]) and in data set [4] (setting [10]) were 0.00705 µM and 0.0264 µM, respectively.

For the compound `CC(=O)N[C@@H](Cc1ccc2c(c1)OCO2)[C@H](O)CN[C@H]1CC2(CCC2)Oc2c1cc(CC(C)(C)C)nc2Cl` [compound 124], the IC50 was 0.0286 µM in data set [2] (setting [9]) and 0.114 µM in data set [4] (setting [10]).

As for `CC(C)(C)Cc1cnc2c(c1)[C@@H](NC[C@@H](O)[C@H](Cc1ccc3c(c1)OCO3)NC(=O)C(F)(F)Cl)CC1(CCC1)O2` [compound 99], the results for the IC50 in data set [2] (setting [9]) and in data set [4] (setting [10]) were 0.0593 µM and 0.317 µM, respectively.

For the compound `CC(=O)N[C@@H](Cc1cccc(F)c1)[C@H](O)CN[C@H]1CC2(CCC2)Oc2ncc(OC(C)(F)F)cc21` [compound 151, N-((1S,2R)-3-(((4′S)-6′-((1,1-difluoroethyl)oxy)-3′,4′-dihydrospiro[cyclobutane-1,2′-pyrano[2,3-b]pyridin]-4′-yl)amino)-1-((3-fluorophenyl)methyl)-2-hydroxypropyl)acetamide], the results for the IC50 in data set [2] (setting [9]) and in data set [4] (setting [10]) were 0.0205 µM and 0.0841 µM, respectively.

With `CNc1nc(CC(C)(C)C)cc2c1OC1(CCC1)C[C@@H]2NC[C@@H](O)[C@H](Cc1ccc(F)cc1)NC(=O)COC` [compound 147], the figures for the IC50 in data set [2] (setting [9]) and in data set [4] (setting [10]) were 0.0495 µM and 0.0232 µM, respectively.

As for `CC(=O)N[C@@H](Cc1ccc(F)cc1)[C@H](O)CN[C@@H]1C[C@]2(CC[C@H]2O)Oc2ncc(CC(C)(C)C)cc21` [compound 115], the figures for the IC50 in data set [2] (setting [9]) and in data set [4] (setting [10]) were 6.88 µM and 5.5 µM, respectively.

With `COC(C)C(=O)NC(Cc1cc(F)cc(F)c1)C(O)CNC1CC2(CCC2)Oc2ncc(CC(C)(C)C)cc21` [compound 103, (S)—N-((2S,3R)-1-(3,5-difluorophenyl)-3-hydroxy-4-((S)-6-neopentyl-3,4-dihydrospiro[cyclobutane-1,2H-pyrano[2,3-b]pyridin-4-ylamino)butan-2-yl)-2-methoxypropanamide], the IC50 in data set [2] (setting [9]) was 0.0101 µM; in data set [4] (HEK cells, cell-based assay, read-out: HEK cell assay (IC50)) it was 0.0268 µM.

`CNc1nc(CC(C)(C)C)cc2c1OC1(CCC1)C[C@@H]2NC[C@@H](O)[C@H](Cc1ccc2c(c1)OCO2)NC(=O)COC` [compound 125]: the IC50 stood at 0.057 µM in data set [2] (setting [9]) and 0.0133 µM in data set [4] (setting [10]).

As to `COCC(=O)N[C@@H](Cc1ccc2c(c1)OCO2)[C@H](O)CN[C@H]1CC2(CCC2)Oc2ncc(CC(C)(F)F)cc21` [compound 276], the IC50 in data set [2] (setting [13]) turned out to be 0.076 µM; in data set [4] (setting [10]) it was 0.0872 µM.

Consider `COCC(=O)N[C@@H](Cc1ccc(F)cc1)[C@H](O)CN[C@H]1CC2(CCC2)Oc2c(F)cc(CC(C)(C)C#N)cc21` [compound 172], for which the IC50 in data set [2] (setting [9]) amounted to 0.0186 µM; in data set [4] (setting [10]), 0.0433 µM.

Turning to `COC(=O)N[C@@H](Cc1ccc2c(c1)OCO2)[C@H](O)CN[C@H]1CC2(CCC2)Oc2ncc([C@H](F)C(C)(C)C)cc21` [compound 359], the IC50 in data set [2] (setting [11]) worked out at 0.199 µM; in data set [4] (setting [12]), 0.208 µM.

With `COCC(=O)N[C@@H](Cc1ccc2c(c1)OCCO2)[C@H](O)CN[C@H]1CC2(CCC2)Oc2ncc(CC(C)(C)C)cc21` [compound 206], the IC50 was determined as 0.0227 µM in data set [2] (setting [13]) and 0.0425 µM in data set [4] (setting [10]).

In the case of `COCC(=O)N[C@@H](Cc1ccc(F)cc1)[C@H](O)CNC1CC2(CC(F)(F)C2)Oc2ncc(CC(C)(C)C)cc21` (some centres unmarked) [compound 53], the IC50 in data set [2] (setting [9]) is 0.011 µM; in data set [4] (setting [10]) it was 0.065 µM.

For `COCC(=O)N[C@@H](Cc1cccc(F)c1)[C@H](O)CN[C@H]1CC2(CCC2)Oc2c(-c3ccncc3)cc(CC(C)(C)F)cc21` [compound 530], the IC50 in data set [2] (setting [7]) amounted to 0.015 µM; in data set [4] (setting [8]) it was 0.01 µM.

As for `COC(C(=O)N[C@@H](Cc1cccc(F)c1)[C@H](O)CN[C@H]1CC2(CCC2)Oc2ncc(CC(C)(C)C)cc21)C(F)(F)F` (some centres unmarked) [compound 65], the IC50 in data set [2] (setting [9]) was found to be 0.0343 µM; in data set [4] (setting [10]), 0.127 µM.

Consider `C#CCCC(=O)N[C@@H](Cc1ccc2c(c1)OCO2)[C@H](O)CN[C@H]1CC2(CCC2)Oc2ncc(CC(C)(C)C)cc21` [compound 843], for which the IC50 in data set [2] (setting [5]) turned out to be 0.044 µM; in data set [4] (Homo sapiens, HEK293, HEK cell-based assay, IC50's in uM, read-out: HEK cell assay) it was 0.065 µM.

With `COCC(=O)N[C@@H](Cc1ccc2c(c1)OCO2)[C@H](O)CN[C@H]1CC2(CC(F)(F)C2)Oc2ncc(CC(C)(C)C)cc21` [compound 52], the IC50 is 0.042 µM in data set [2] (setting [9]) and 0.103 µM in data set [4] (setting [10]).
